# Test results published in patent publication US20100298141A1, “SUBSTITUTED PYRIDINE N-OXIDE HERBICIDES” (E. I. DU PONT DE NEMOURS AND COMPANY, priority 2007, published 2010).
# Tests used:
# [1] = test system: rice; assay: Test C flooded paddy test; format: in vivo, Oryza sativa; settings: Flood
# In short: (§1)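 Pots were flooded to 3 cm above the soil surface at treatment, compound applied directly to the paddy water, and that depth held throughout. Plants were kept in a greenhouse for 13 to 15 days, then visually rated against untreated controls.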
# [2] = test system: wheat; assay: Test C pre-/postemergence test; format: in vivo, Triticum aestivum
# In short: (§2)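 Compounds in a non-phytotoxic solvent with surfactant applied preemergence to seeded pots and, at the same time, postemergence to plants 2–18 cm tall (1- to 4-leaf stage). Paddy tests: pots flooded to 3 cm, compound applied into the water, depth held throughout.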
# [3] = test system: wheat; assay: Test A pre-/postemergence greenhouse test; format: in vivo, Triticum aestivum; settings: for Plant response rating, Wheat: 0 to 100 scale where 0 is no effect and 100 is complete control; for Wheat plant response rating: 0 to 100 scale
# In short: (§3)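 Sowing in loam/sand; same-day pre (directed soil spray) and post (foliar, 1–2 leaf, 2–10 cm) treatment with surfactant-containing non-phytotoxic solvent formulation; ~10 days in greenhouse; eye-scored injury against untreated plants.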
# [4] = test system: pigweed; assay: Test C pre-/postemergence test; format: in vivo, Amaranthus retroflexus
# In short: as §2
# [5] = test system: corn; assay: Test A pre-/postemergence greenhouse test; format: in vivo, Zea mays; settings: for Plant response rating, Corn: 0 to 100 scale where 0 is no effect and 100 is complete control; for Corn plant response rating: 0 to 100 scale
# In short: as §3
# [6] = test system: umbrella sedge; assay: Test C flooded paddy test; format: in vivo, Cyperus difformis; settings: Flood
# In short: as §1
# [7] = test system: Goosegrass; assay: Test C pre-/postemergence test; format: in vivo, Eleusin indica
# In short: as §2
# [8] = test system: Surinam grass; assay: Test C pre-/postemergence test; format: in vivo, Brachiaria decumbens
# In short: as §2
# [9] = test system: giant foxtail; assay: Test A pre-/postemergence greenhouse test; format: in vivo, Setaria faberi; settings: for Plant response rating, Foxtail, Giant: 0 to 100 scale where 0 is no effect and 100 is complete control; for Foxtail, Giant plant response rating: 0 to 100 scale
# In short: as §3
# [10] = test system: eastern black nightshade; assay: Test C pre-/postemergence test; format: in vivo, Solanum ptycanthum
# In short: as §2
# [11] = test system: lambsquarters; assay: Test C pre-/postemergence test; format: in vivo, Chenopodium album
# In short: as §2
# [12] = test system: bermudagrass; assay: Test C pre-/postemergence test; format: in vivo, Cynodon dactylon
# In short: as §2
# [13] = test system: crabgrass; assay: Test C pre-/postemergence test; format: in vivo, Digitaria sanguinalis
# In short: as §2
# [14] = test system: redroot pigweed; assay: Test A pre-/postemergence greenhouse test; format: in vivo, Amaranthus retroflexus; settings: for Plant response rating, Pigweed: 0 to 100 scale where 0 is no effect and 100 is complete control; for Pigweed plant response rating: 0 to 100 scale
# In short: as §3
# [15] = test system: morningglory; assay: Test A pre-/postemergence greenhouse test; format: in vivo, Ipomoea spp.; settings: for Plant response rating, Morningglory: 0 to 100 scale where 0 is no effect and 100 is complete control; for Morningglory plant response rating: 0 to 100 scale
# In short: as §3
# [16] = test system: common (oilseed) sunflower; assay: Test C pre-/postemergence test; format: in vivo, Helianthus annuus
# In short: as §2
# [17] = test system: barnyardgrass; assay: Test A pre-/postemergence greenhouse test; format: in vivo, Echinochloa crus-galli; settings: for Plant response rating, Barnyardgrass: 0 to 100 scale where 0 is no effect and 100 is complete control; for Barnyardgrass plant response rating: 0 to 100 scale
# In short: as §3
# [18] = 62 g ai/ha, scale 0 to 100 (0 no effect, 100 complete control)
# [19] = 250 g ai/ha, scale 0 to 100, 0 no effect, 100 complete control, 13 to 15 days
# [20] = 62 g ai/ha, Preemergence, scale 0 to 100
# [21] = 125 g ai/ha, preemergence, scale 0 (no effect) to 100 (complete control)
# [22] = Postemergence, 125 g ai/ha, scale 0 to 100, 0 no effect, 100 complete control
# [23] = Postemergence, 250 g ai/ha, scale 0 to 100, 0 no effect, 100 complete control
# [24] = Preemergence, 31 g ai/ha, scale 0 to 100 (0 no effect, 100 complete control)
# [25] = preemergence, 250 g ai/ha, scale 0 (no effect) to 100 (complete control)
# [26] = Postemergence, 500 g ai/ha, 0 is no effect, 100 is complete control
# [27] = Preemergence, 125 g ai/ha, 0 no effect, 100 complete control
# [28] = Postemergence, 62 g ai/ha, scale 0 to 100, 0 no effect, 100 complete control
structure (smiles),measurement,setting,value
Cn1nc(C(F)(F)F)c(C[S+]([O-])c2ccc(Cl)c[n+]2[O-])c1OCC(F)(F)F (racemic) [Compound 62],"Plant response rating, Rice",[1]; [18],60
same,"Plant response rating, Rice",[1]; [19],90
same,Wheat plant response rating,[2]; [20],55
same,Wheat plant response rating,[2]; [21],80
same,"Plant response rating (0 to 100), Wheat","[2]; Postemergence, 31 g ai/ha",0
same,"Plant response rating (0 to 100), Wheat","[2]; Postemergence, 62 g ai/ha",10
same,"Plant response rating, Wheat",[2]; [22],55
same,"Plant response rating, Wheat",[2]; [23],60
same,"Plant response rating, Wheat",[2]; [24],40
same,Wheat plant response rating,[2]; [25],95
same,"Plant response rating, Wheat","[3]; Postemergence, 125 g ai/ha",60
same,Wheat plant response rating,[3]; [26],60
same,Wheat plant response rating,[3]; [27],70
same,"Plant response rating, Wheat","[3]; Preemergence, 500 g ai/ha",100
same,Pigweed plant response rating,[4]; [20],100
same,Pigweed plant response rating,[4]; [21],100
same,"Plant response rating (0 to 100), Pigweed","[4]; Postemergence, 31 g ai/ha",0
same,"Plant response rating (0 to 100), Pigweed","[4]; Postemergence, 62 g ai/ha",0
same,"Plant response rating, Pigweed",[4]; [22],0
same,"Plant response rating, Pigweed",[4]; [23],5
same,"Plant response rating, Pigweed",[4]; [24],80
same,Pigweed plant response rating,[4]; [25],100
same,"Plant response rating, Corn","[5]; Postemergence, 125 g ai/ha",50
same,Corn plant response rating,[5]; [26],70
same,Corn plant response rating,[5]; [27],80
same,"Plant response rating, Corn","[5]; Preemergence, 500 g ai/ha",90
same,"Plant response rating, Sedge, Umbrella",[6]; [18],0
same,"Plant response rating, Sedge, Umbrella",[6]; [19],100
same,Goosegrass plant response rating,[7]; [20],100
same,Goosegrass plant response rating,[7]; [21],100
same,"Plant response rating (0 to 100), Goosegrass","[7]; Postemergence, 31 g ai/ha",0
same,"Plant response rating, Goosegrass",[7]; [28],0
same,"Plant response rating, Goosegrass",[7]; [22],10
same,"Plant response rating, Goosegrass",[7]; [23],50
same,"Plant response rating, Goosegrass",[7]; [24],100
same,Goosegrass plant response rating,[7]; [25],100
same,Surinam Grass plant response rating,[8]; [20],98
same,Surinam Grass plant response rating,[8]; [21],100
same,"Plant response rating (0 to 100), Surinam Grass","[8]; Postemergence, 31 g ai/ha",0
same,"Plant response rating (0 to 100), Surinam Grass","[8]; Postemergence, 62 g ai/ha",0
same,"Plant response rating, Surinam Grass",[8]; [22],0
same,"Plant response rating, Surinam Grass",[8]; [23],60
same,"Plant response rating, Surinam Grass",[8]; [24],80
same,Surinam Grass plant response rating,[8]; [25],100
same,"Plant response rating, Foxtail, Giant","[9]; Postemergence, 125 g ai/ha",90
same,"Foxtail, Giant plant response rating",[9]; [26],90
same,"Foxtail, Giant plant response rating",[9]; [27],100
same,"Plant response rating, Foxtail, Giant","[9]; Preemergence, 500 g ai/ha",100
same,Nightshade plant response rating,[10]; [20],100
same,Nightshade plant response rating,[10]; [21],100
same,"Plant response rating, Nightshade",[10]; [24],100
same,Nightshade plant response rating,[10]; [25],100
same,Lambsquarters plant response rating,[11]; [20],100
same,Lambsquarters plant response rating,[11]; [21],100
same,"Plant response rating (0 to 100), Lambsquarters","[11]; Postemergence, 31 g ai/ha",0
same,"Plant response rating, Lambsquarters",[11]; [28],0
same,"Plant response rating, Lambsquarters",[11]; [22],0
same,"Plant response rating, Lambsquarters",[11]; [23],0
same,"Plant response rating, Lambsquarters",[11]; [24],100
same,Lambsquarters plant response rating,[11]; [25],100
same,Bermudagrass plant response rating,"[12]; 62 g ai/ha, Preemergence, scale 0 to 100 (0 no effect, 100 complete control)",100
same,Bermudagrass plant response rating,[12]; [21],100
same,"Plant response rating (0 to 100), Bermudagrass","[12]; Postemergence, 31 g ai/ha",0
same,"Plant response rating, Bermudagrass",[12]; [28],0
same,"Plant response rating, Bermudagrass",[12]; [22],30
same,"Plant response rating, Bermudagrass",[12]; [23],35
same,"Plant response rating, Bermudagrass",[12]; [24],100
same,Bermudagrass plant response rating,[12]; [25],100
same,"Crabgrass, Large plant response rating",[13]; [20],80
same,"Crabgrass, Large plant response rating",[13]; [21],100
same,"Plant response rating (0 to 100), Crabgrass, Large","[13]; Postemergence, 31 g ai/ha",0
same,"Plant response rating, Crabgrass, Large",[13]; [28],0
same,"Plant response rating, Crabgrass, Large",[13]; [22],0
same,"Plant response rating, Crabgrass, Large",[13]; [23],50
same,"Plant response rating, Crabgrass, Large",[13]; [24],60
same,"Crabgrass, Large plant response rating",[13]; [25],100
same,"Plant response rating, Pigweed","[14]; Postemergence, 125 g ai/ha",60
same,Pigweed plant response rating,[14]; [26],80
same,Pigweed plant response rating,[14]; [27],100
same,"Plant response rating, Pigweed","[14]; Preemergence, 500 g ai/ha",100
same,"Plant response rating, Morningglory","[15]; Postemergence, 125 g ai/ha",90
same,Morningglory plant response rating,[15]; [26],100
same,Morningglory plant response rating,[15]; [27],90
same,"Plant response rating, Morningglory","[15]; Preemergence, 500 g ai/ha",100
same,Sunflower plant response rating,[16]; [20],75
same,Sunflower plant response rating,[16]; [21],80
same,"Plant response rating, Sunflower",[16]; [24],50
same,Sunflower plant response rating,[16]; [25],80
same,"Plant response rating, Barnyardgrass","[17]; Postemergence, 125 g ai/ha",80
same,Barnyardgrass plant response rating,[17]; [26],90
same,Barnyardgrass plant response rating,[17]; [27],90
same,"Plant response rating, Barnyardgrass","[17]; Preemergence, 500 g ai/ha",100
